Measurements published in patent US20250375453A1, “HIGH-EFFICIENCY ANTIMICROBIAL COMPOSITION” (CM4CURE S.A., priority 2023, published 2025).

What was measured:
[1] = system: Pseudomonas aeruginosa (ATCC 15442); test: Real-time microcalorimetric measurement of bacterial metabolic activity (heat flow, Calscreener); type: cell-based
Method: Pseudomonas aeruginosa (ATCC 15442) was grown overnight in TSB (tryptic soy broth) medium, before being diluted 1×10^7 fold in fresh TSB. Subsequently […] aliquots of diluted bacteria suspensions were respectively supplemented with 1, 2, 4, 6, 12 and 24 mg/L of chlorhexidine (digluconate solution, 20% in H2O, Merck). The aqueous solution of chlorhexidine was kept refrigerated according to the manufacturer's technical sheet. Chlorhexidine or mQH2O as a vehicle were added to the bacterial suspensions to obtain the given concentrations followed by a brief vortexing. Bacterial aliquots were then distributed in the dedicated non-activated inserts of a 48-well plate and grown for 24h or more under static conditions at 37 C using Calscreener technology to measure bacterial growth and metabolic activity in Real-Time as described in https://cordis.europa.eu/project/id/784514.
For the study of the combination of chlorhexidine and triafluocyl aforementioned diluted bacterial suspensions were supplemented with either chlorhexidine alone (1, 2, 4, 6, 12 mg/L) or mixed with triafluocyl (20 mg/L, Polpharma). Triafluocyl was stored in absolute ethanol in the refrigerator at a concentration of 3 mg/mL. Triafluocyl, chlorhexidine or both, and ethanol as a vehicle were added to the bacterial suspensions to obtain the given concentrations.
Pseudomonas aeruginosa (ATCC 15442) was grown overnight in TSB (tryptic soy broth) medium, before being diluted 1×10^7 fold in fresh TSB. Subsequently […] aliquots of diluted bacteria suspensions were respectively supplemented with […] of alexidine dihydrochloride (stock solution of 3 mg/mL in ethanol, Merck). […] The stock solutions of alexidine and fluometacyl were kept frozen according to the manufacturer's technical sheet. Alexidine alone or with fluometacyl, and ethanol as a vehicle were added to the bacterial suspensions to obtain the given concentrations followed by a brief vortexing. […]

[2] = system: Staphylococcus aureus (MRSA, ATCC 6538); test: as above; type: cell-based
Method: Staphylococcus aureus (MRSA, ATCC 6538) was grown overnight in TSB (tryptic soy broth) medium, before being diluted 1×10^6 fold in fresh TSB. Subsequently […] aliquots of diluted bacteria suspensions were respectively supplemented with 1 and 2 mg/L of chlorhexidine (digluconate solution, 20% in H2O, Merck). […] The aqueous solution of chlorhexidine and the ethanol-based solution of triafluocyl were kept refrigerated. Chlorhexidine, triafluocyl or both, and ethanol as a vehicle were added to the bacterial suspensions to obtain the given concentrations followed by a brief vortexing. Bacterial aliquots were then distributed in the dedicated non-activated inserts of a 48-well plate and grown for 24 h or more under static conditions at 37 C using Calscreener technology to measure bacterial growth and metabolic activity in Real-Time as described in https://cordis.europa.eu/project/id/784514.
Staphylococcus aureus (MRSA, ATCC 6538) was grown overnight in TSB (tryptic soy broth) medium, before being diluted 1×10^6 fold in fresh TSB. Subsequently […] aliquots of diluted bacteria suspensions were respectively supplemented with 0.25, 0.5 and 1 μg/mL of chlorhexidine (digluconate solution, 20% in H2O, Merck) or alexidine dihydrochloride (stock solution of 3 mg/mL in ethanol, Merck).
The aqueous solution of chlorhexidine and the ethanol-based solution of alexidine were kept refrigerated. Chlorhexidine, alexidine, and ethanol as a vehicle were added to the bacterial suspensions to obtain the given concentrations followed by a brief vortexing. Bacterial aliquots were then distributed in the dedicated non-activated inserts of a 48-well plate and grown for 24 h or more under static conditions at 37 C using Calscreener technology to measure bacterial growth and metabolic activity in Real-Time as described in https://cordis.europa.eu/project/id/784514.
Staphylococcus aureus (MRSA, ATCC 6538) was grown overnight in TSB (tryptic soy broth) medium, before being diluted 1×10^6 fold in fresh TSB. Subsequently […] aliquots of diluted bacteria suspensions were respectively supplemented with […] of alexidine dihydrochloride (stock solution of 3 mg/mL in ethanol, Merck). […] The ethanol-based solutions of alexidine and fluometacyl were stored at −20° C.
Alexidine alone or with fluometacyl, and ethanol as a vehicle were added to the bacterial suspensions to obtain the given concentrations followed by a brief vortexing. Bacterial aliquots were then distributed in the dedicated non-activated inserts of a 48-well plate and grown for 24 h or more under static conditions at 37 C using Calscreener technology to measure bacterial growth and metabolic activity in Real-Time.

[3] = cited from earlier work
[4] = system: Vancomycin-resistant Enterococcus faecalis (VRE, ATCC BAA-2573); test: Synergy checkerboard assay / broth micro-dilution MIC (ISO 20776-1 with modifications); type: cell-based
Method: • 1. Preparation of the inoculum of Vancomycin-resistant Enterococcus faecalis (VRE, ATCC BAA-2573). Inoculum is prepared by suspension of 1 colony of bacteria (medium size colony from Tryptic Soy agar plate) in 3 ml of Tryptic Soy broth (TSB) using a 200 μL tip. The solution is mixed by vortexing and incubated at 37° C. overnight (19-24 hours) under shaking at 200 rpm. • 2. Preparation of the Antimicrobial dilution on the day of the experiment. Stock solutions are performed with distilled water for all antimicrobial compound except for Fluometacyl (ethanol). Dilution for each condition is made in Mueller-Hinton broth (NMB). 50p of APIs dilution is added to wells of a 96 wells microplate (each condition in duplicate-triplicate). • Antimicrobial compounds were prepared as follows: • Fluometacyl (F) (4 mg/mL in 100% EtOH) served as a master stock. To obtain the final concentration of 40 μg/ml in the bacterial suspension, initial stock of 160 μg/ml in Mueller-Hinton broth (MHB) was prepared and further 2-fold diluted using the following serial dilution scheme: • (1): 40 μg/ml (160 μg/ml, prepared in MHB) • (2): 20 μg/ml (80 μg/ml, dilution in MHB) • (3): 10 μg/ml (40 μg/ml, dilution in MHB) • (4): 5 μg/ml (20 μg/ml, dilution in MHB) • (5): 2.5 μg/ml (10 μg/ml, dilution in MHB) • (6): 1.25 μg/ml (5 μg/ml, dilution in MHB) • Chlorhexidine acetate (CHLX) (2 mg/mL in H2O) served as a master stock. To obtain the final concentration of 4 μg/ml in the bacterial suspension, initial stock of 16 μg/ml in MHB was prepared and further 2-fold diluted using the following serial dilution scheme: • (1): 8 μg/ml (32 μg/ml, prepared in MHB) • (2): 4 μg/ml (16 μg/ml, prepared in MHB) • (3): 2 μg/ml (8 μg/ml, dilution in MHB) • (4): 1 μg/ml (4 μg/ml, dilution in MHB) • (5): 0.5 μg/ml (2 μg/ml, dilution in MHB) • (6): 0.25 μg/ml (1 μg/ml, dilution in MHB) • 3. Preparation of VRE. Before the experiment, the VRE bacterial suspension (incubated overnight) is diluted 100× in TSB in 4 mL of TSB and grown at 37 C under agitation 200 rpm until OD600 reaches 0.08 to 0.16. This corresponds to the cell density […]. 100 μl of the bacterial solution (OD600 ranging from 0.08 to 0.16) is added to 9 900 μL of Mueller-Hinton Broth (MHB) (dilution 1:100). • 4. Preparation of a 96-well plate. 100 μL of bacteria (diluted 1:100 in MHB from the point 3) is added in each well of the plate containing 100 μL of the serially diluted APIs alone or in combinations as shown in the p. 2. Bacteria should be added into the 96-well plate within the 30 minutes following the preparation of the bacteria in order to maintain the same number of CFU/mL. Plates are incubated at 37° C. overnight. A condition with MHB medium alone or bacteria without APIs will also be added as the control conditions. Since fluometacyl is dissolved in ethanol, extra conditions are added: MHB with ethanol in order to assess the effect of ethanol on bacterial growth. • Following scheme is applied: • 2 antibacterial compounds: 50 μL of a antimicrobial 1+50 μL of a antimicrobial 2+100 μL of bacterial suspension in MHB • 1 antibacterial compound: 50 μL of a drug 1/2+50 μL of MHB+100 μL of bacterial suspension in MHB • Growth control: 100 μL MHB (+/−Ethanol)+100 μL of bacterial suspension • BLANK: MHB only • 5. CFU counting of the initial challenge inoculum. 10 μL of the solution of the bacteria used as the positive control is diluted in 10 mL of TSB. 100 μL is spread on Tryptic Soy agar (done in triplicate) and incubated at 37° C. overnight • 6. Results. The MIC is the lowest concentration that inhibits completely the visible growth of the bacteria (no turbidity in a well). The OD at 600 nm is also recorded for each well as back-up data.
Synergy evaluation resulting from the comparison between activity of the combination of the antimicrobial compounds and their individual activities was represented as the Fractional Inhibitory Concentration (FIC) index value. […]

Candida albicans (CA) = test: MIC in monotherapy and in combination therapy (ISO standard 20776-1); type: cell-based
Description: (§1) Summary of MIC Values for Fluometacyl (FLC)+Chlorhexidine (CHX) Tested Against MRSA, Enterococcus faecalis (VRE), Pseudomonas aeruginosa (PA) and Candida albicans (CA).
(§2) By Minimum Inhibitory Concentration (MIC) one means the lowest concentration of antimicrobial that prevents visible growth of a microorganism (determined according to ISO standard 20776-1).
(§3) This finds an implication in combining many known antimicrobials together rather than discovering new chemical entities.

[5] = system: Pseudomonas aeruginosa (PA); test: as above; type: cell-based
Description: as §1, §2, §3

[6] = system: Staphylococcus aureus (MRSA); test: as above; type: cell-based
Description: as §1, §2, §3

[7] = MIC combination / MIC monotherapy

CCCSc1nc(N[C@@H]2C[C@H]2c2ccc(F)c(F)c2)c2nnn([C@@H]3C[C@H](OCCO)[C@@H](O)[C@H]3O)c2n1 [Triafluocyl, (1S,2S,3R,5S)-3-[7-[(1R,2S)-2-(3,4-difluorophenyl)cyclopropylamino]-5-(propylthio)-3H-[1,2,3]-triazolo[4,5-d]pyrimidin-3-yl]-5-(2-hydroxyethoxy)-1,2-cyclopentanediol]
effect on growth (heat flow) ([1]; triafluocyl 20 mg/L alone): does not inhibit the growth
effect on growth (heat flow) ([2]; triafluocyl 1 mg/L alone): doesn't affect the growth
solubility in an aqueous environment or aqueous medium [3]: generally not soluble

alexidine
effect on growth (heat flow) ([1]; alexidine 4 mg/mL alone): strong growth inhibition
effect on growth (heat flow) ([2]; alexidine 1 mg/mL alone): full growth inhibition
effect on metabolic activity (heat flow), compared with chlorhexidine ([2]; alexidine 0.25 and 0.5 mg/mL alone): noticeably stronger effect

CCCSc1nc(N[C@@H]2C[C@H]2c2ccc(F)c(F)c2)c2nnn([C@@H]3C[C@H](O)[C@@H](O)[C@H]3O)c2n1 [Fluometacyl, (1S,2R,3S,4R)-4-[7-[[(1R,2S)-2-(3,4-Difluorophenyl)cyclopropyl]amino]-5-(propylthio)-3H-1,2,3-triazolo[4,5-d]pyrimidin-3-yl]-1,2,3-cyclopentanetriol]
MIC ([4]; Enterococcus faecalis, antimicrobial alone, read-out: MIC Monotherapy (X)): 20 mg/mL
Ratio Y/X [4, 7]: 0.125-0.5
MIC combination dual therapy (Y) ([4]; in FLC + CHX combination): 2.5 to 10 mg/mL
MIC Monotherapy (X) (Candida albicans (CA); antimicrobial alone): Not detected
MIC combination dual therapy (Y) (Candida albicans (CA); in FLC + CHX combination): 20 mg/mL
MIC Monotherapy (X) ([5]; antimicrobial alone): Not detected
MIC combination dual therapy (Y) ([5]; in FLC + CHX combination): 20 mg/mL
Ratio Y/X [6, 7]: 0.25-0.5
MIC ([6]; Staphylococcus aureus, MRSA, antimicrobial alone, read-out: MIC Monotherapy (X)): 20 mg/mL
MIC combination dual therapy (Y) ([6]; in FLC + CHX combination): 5 to 10 mg/mL
solubility in an aqueous environment or aqueous medium [3]: generally not soluble
